Reference: ChEMBL document CHEMBL2380198, “SAR and evaluation of novel 5H-benzo[c][1,8]naphthyridin-6-one analogs as Aurora kinase inhibitors” (Bioorg Med Chem Lett, 2013)
Calls of active or inactive are those of the source. The calls are words filed in the database; no cut-off is given here.

target: T1, Mitogen-activated protein kinase 13 (Homo sapiens, UniProt O15264); test: Inhibition of SAPK4 (unknown origin); settings: not given
T1 sequence (O15264 whole entry): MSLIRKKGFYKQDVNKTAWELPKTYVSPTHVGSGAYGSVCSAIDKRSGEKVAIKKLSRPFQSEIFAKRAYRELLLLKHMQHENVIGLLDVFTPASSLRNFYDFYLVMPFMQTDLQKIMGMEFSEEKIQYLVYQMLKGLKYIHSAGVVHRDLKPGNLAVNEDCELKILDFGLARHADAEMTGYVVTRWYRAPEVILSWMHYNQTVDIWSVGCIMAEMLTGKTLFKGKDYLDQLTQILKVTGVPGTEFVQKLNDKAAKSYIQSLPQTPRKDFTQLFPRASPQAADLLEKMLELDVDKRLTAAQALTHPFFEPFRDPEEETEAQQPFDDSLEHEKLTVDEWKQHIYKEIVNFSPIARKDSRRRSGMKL

IC50 [nM]	SMILES
411	O=C(Nc1ccc(Nc2ccnc3[nH]c(=O)c4ccccc4c23)cc1)c1ccccc1

target: LIM domain kinase 1 (Homo sapiens, UniProt P53667); test: Inhibition of LIMK1 (unknown origin); settings: not given
Sequence (P53667 whole entry, the tested form may be a part): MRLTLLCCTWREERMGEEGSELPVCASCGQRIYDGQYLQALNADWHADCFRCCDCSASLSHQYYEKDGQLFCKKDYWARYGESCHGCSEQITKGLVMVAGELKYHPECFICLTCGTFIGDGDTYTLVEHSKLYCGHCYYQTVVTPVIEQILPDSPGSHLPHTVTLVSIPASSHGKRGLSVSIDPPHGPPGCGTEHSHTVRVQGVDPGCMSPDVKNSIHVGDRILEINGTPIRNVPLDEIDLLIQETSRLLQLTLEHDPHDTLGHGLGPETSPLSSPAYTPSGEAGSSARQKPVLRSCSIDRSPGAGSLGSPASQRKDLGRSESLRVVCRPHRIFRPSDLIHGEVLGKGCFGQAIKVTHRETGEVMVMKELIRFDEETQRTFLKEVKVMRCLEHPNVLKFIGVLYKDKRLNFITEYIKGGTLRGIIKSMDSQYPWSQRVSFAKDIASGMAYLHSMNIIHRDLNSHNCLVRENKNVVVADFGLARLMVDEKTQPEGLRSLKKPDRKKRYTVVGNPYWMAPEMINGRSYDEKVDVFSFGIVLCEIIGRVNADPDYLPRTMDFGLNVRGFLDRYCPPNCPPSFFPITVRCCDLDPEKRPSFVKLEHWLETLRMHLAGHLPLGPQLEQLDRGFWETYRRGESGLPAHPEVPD

IC50 [nM]	SMILES
36	O=C(Nc1ccc(Nc2ccnc3[nH]c(=O)c4ccccc4c23)cc1)c1ccccc1
18	O=C(Nc1ccc(Nc2ccnc3[nH]c(=O)c4ccccc4c23)cc1)c1ccc(F)cc1C(F)(F)F

target: T2, Aurora kinase B (Homo sapiens, UniProt Q96GD4); test: Inhibition of aurora-B in human MIAPaCa2 cells assessed as reduction of phosphorylation of histone H3; assay type: cell-based, MIA PaCa-2; settings: not given
T2 sequence (Q96GD4 whole entry): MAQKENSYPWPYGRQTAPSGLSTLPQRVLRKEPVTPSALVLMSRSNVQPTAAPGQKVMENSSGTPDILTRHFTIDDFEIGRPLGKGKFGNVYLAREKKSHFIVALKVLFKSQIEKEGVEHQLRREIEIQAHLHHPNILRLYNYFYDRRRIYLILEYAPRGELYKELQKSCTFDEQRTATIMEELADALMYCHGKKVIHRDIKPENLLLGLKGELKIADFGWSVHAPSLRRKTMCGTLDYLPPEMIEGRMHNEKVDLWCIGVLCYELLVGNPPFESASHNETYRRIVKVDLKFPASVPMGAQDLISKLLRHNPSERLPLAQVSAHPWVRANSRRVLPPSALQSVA

IC50 [nM]	SMILES
208	O=C(Nc1ccc(Nc2ccnc3[nH]c(=O)c4ccccc4c23)cc1)c1ccccc1
52	O=C(Nc1ccc(Nc2ccnc3[nH]c(=O)c4ccccc4c23)cc1)c1ccc(F)cc1C(F)(F)F

test system: not listed separately; test: Solubility of the compound; assay type: physicochemical; settings: not given

solubility [µM]	SMILES
< 1	O=C(Nc1ccc(Nc2ccnc3[nH]c(=O)c4ccccc4c23)cc1)c1ccccc1

test system: not listed separately; test: Half life in mouse at 5 mg/kg, iv; assay type: ADME, organism-based; parameters: dose 5 mg/kg, route intravenous; settings: in vivo

half-life [h]	SMILES
1.36	O=C(Nc1ccc(Nc2ccnc3[nH]c(=O)c4ccccc4c23)cc1)c1ccc(F)cc1C(F)(F)F

test system: Mus musculus; test: Inhibition of aurora-B in mouse bone marrow assessed as reduction of phosphorylation of histone H3 at 150 and 300 mg/kg, po after 2 hrs; assay type: functional; settings: not given

SMILES	inhibition in vivo at 300 mg/kg [%]
O=C(Nc1ccc(Nc2ccnc3[nH]c(=O)c4ccccc4c23)cc1)c1ccc(F)cc1C(F)(F)F	40

target: Serine/threonine-protein kinase SIK1 (Homo sapiens, UniProt P57059); test: Inhibition of SIK (unknown origin); settings: not given
Sequence (P57059 whole entry): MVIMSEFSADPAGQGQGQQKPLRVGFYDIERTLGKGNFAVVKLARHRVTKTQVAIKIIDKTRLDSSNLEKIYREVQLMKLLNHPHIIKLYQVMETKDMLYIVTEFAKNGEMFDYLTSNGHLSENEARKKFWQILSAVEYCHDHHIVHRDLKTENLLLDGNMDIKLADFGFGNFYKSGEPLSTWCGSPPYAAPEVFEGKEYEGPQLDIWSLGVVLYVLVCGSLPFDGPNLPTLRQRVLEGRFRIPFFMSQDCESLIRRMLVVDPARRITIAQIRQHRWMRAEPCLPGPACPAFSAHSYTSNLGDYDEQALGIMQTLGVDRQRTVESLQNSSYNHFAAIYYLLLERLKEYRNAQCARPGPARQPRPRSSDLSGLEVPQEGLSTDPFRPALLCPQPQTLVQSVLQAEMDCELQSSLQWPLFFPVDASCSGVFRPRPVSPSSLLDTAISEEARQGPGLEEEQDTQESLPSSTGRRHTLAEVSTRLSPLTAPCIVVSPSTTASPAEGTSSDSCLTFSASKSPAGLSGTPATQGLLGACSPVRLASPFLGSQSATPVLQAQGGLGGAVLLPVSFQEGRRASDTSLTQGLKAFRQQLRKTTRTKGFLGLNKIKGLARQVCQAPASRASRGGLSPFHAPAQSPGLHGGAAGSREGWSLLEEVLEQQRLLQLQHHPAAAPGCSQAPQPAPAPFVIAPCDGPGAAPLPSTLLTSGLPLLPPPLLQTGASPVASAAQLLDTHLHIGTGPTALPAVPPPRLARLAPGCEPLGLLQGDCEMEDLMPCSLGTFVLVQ

IC50 [nM]	SMILES
211	O=C(Nc1ccc(Nc2ccnc3[nH]c(=O)c4ccccc4c23)cc1)c1ccccc1

target: Proto-oncogene tyrosine-protein kinase receptor Ret (Homo sapiens, UniProt P07949); test: Inhibition of Ret (unknown origin); settings: not given
Sequence (P07949 whole entry): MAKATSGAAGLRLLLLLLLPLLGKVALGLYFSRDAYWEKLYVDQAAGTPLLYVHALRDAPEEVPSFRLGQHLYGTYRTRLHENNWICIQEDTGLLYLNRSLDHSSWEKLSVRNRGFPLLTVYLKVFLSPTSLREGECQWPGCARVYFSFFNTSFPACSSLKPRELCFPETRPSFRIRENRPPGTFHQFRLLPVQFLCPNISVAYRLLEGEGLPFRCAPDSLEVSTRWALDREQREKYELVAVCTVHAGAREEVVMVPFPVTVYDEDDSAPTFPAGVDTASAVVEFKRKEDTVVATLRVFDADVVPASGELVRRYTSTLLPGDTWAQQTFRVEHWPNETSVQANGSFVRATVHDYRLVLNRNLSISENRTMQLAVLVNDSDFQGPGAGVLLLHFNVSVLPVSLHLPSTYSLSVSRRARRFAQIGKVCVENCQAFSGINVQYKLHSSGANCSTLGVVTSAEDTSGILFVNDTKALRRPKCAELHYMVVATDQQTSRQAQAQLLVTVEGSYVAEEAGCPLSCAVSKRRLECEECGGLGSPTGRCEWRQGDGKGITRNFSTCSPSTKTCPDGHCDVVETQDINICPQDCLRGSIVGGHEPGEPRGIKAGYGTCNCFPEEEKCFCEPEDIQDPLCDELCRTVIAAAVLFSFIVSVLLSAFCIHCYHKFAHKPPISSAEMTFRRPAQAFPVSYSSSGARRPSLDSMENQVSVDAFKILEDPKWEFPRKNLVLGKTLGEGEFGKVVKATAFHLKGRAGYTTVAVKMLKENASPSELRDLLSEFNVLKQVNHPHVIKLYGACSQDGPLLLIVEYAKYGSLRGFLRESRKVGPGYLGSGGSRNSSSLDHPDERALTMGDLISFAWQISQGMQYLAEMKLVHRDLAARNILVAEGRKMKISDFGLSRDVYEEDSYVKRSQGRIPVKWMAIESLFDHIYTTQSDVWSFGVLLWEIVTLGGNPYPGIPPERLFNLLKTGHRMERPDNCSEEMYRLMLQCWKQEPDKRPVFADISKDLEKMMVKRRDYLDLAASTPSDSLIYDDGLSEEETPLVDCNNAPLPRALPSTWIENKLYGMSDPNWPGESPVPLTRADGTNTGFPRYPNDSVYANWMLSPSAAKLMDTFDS

IC50 [nM]	SMILES
15	O=C(Nc1ccc(Nc2ccnc3[nH]c(=O)c4ccccc4c23)cc1)c1ccccc1
706	O=C(Nc1ccc(Nc2ccnc3[nH]c(=O)c4ccccc4c23)cc1)c1ccc(F)cc1C(F)(F)F

target: Tyrosine-protein kinase HCK (Homo sapiens, UniProt P08631); test: Inhibition of Hck (unknown origin); settings: not given

IC50 [nM]	SMILES
958	O=C(Nc1ccc(Nc2ccnc3[nH]c(=O)c4ccccc4c23)cc1)c1ccccc1

target: Activated CDC42 kinase 1 (Homo sapiens, UniProt Q07912); test: Inhibition of ACK1 (unknown origin); settings: not given

IC50 [nM]	SMILES
149	O=C(Nc1ccc(Nc2ccnc3[nH]c(=O)c4ccccc4c23)cc1)c1ccccc1

target: High affinity nerve growth factor receptor (Homo sapiens, UniProt P04629); test: Inhibition of TrkA (unknown origin); settings: not given

IC50 [nM]	SMILES
819	O=C(Nc1ccc(Nc2ccnc3[nH]c(=O)c4ccccc4c23)cc1)c1ccccc1

target: T2, Aurora kinase B; test: Inhibition of aurora-B (unknown origin); settings: not given

SMILES	IC50 [nM]
O=C(Nc1ccc(Nc2ccnc3[nH]c(=O)c4ccccc4c23)cc1)c1cccc(F)c1F	0.5
O=C(Nc1ccc(Nc2ccnc3[nH]c(=O)c4ccccc4c23)cc1)c1cc(F)cc(F)c1	0.7
O=C(Nc1ccc(Nc2ccnc3[nH]c(=O)c4ccccc4c23)cc1)c1ccccc1	1
O=C(Nc1ccc(Nc2ccnc3[nH]c(=O)c4ccccc4c23)cc1)c1ccc(F)cc1C(F)(F)F	0.4

Now from value to compound:

IC50 [nM]	SMILES
0.8	O=C(Nc1ccc(Nc2ccnc3[nH]c(=O)c4ccccc4c23)cc1)c1ccc(F)c(F)c1
1440	O=c1[nH]c2nccc(Cl)c2c2ccccc12

test system: not listed separately; test: Oral bioavailability in mouse at 5 mg/kg; assay type: ADME, organism-based; settings: in vivo

bioavailability [%]	SMILES
41	O=C(Nc1ccc(Nc2ccnc3[nH]c(=O)c4ccccc4c23)cc1)c1ccc(F)cc1C(F)(F)F

test system: not listed separately; test: Volume of distribution at steady state in mouse at 5 mg/kg, iv; assay type: ADME, organism-based; parameters: dose 5 mg/kg, route intravenous; settings: in vivo, read-out: Vdss

Vd [L/kg]	SMILES
1.48	O=C(Nc1ccc(Nc2ccnc3[nH]c(=O)c4ccccc4c23)cc1)c1ccc(F)cc1C(F)(F)F

target: Serine/threonine-protein kinase WNK3 (Homo sapiens, UniProt Q9BYP7); test: Inhibition of WNK3 (unknown origin); settings: not given

IC50 [nM]	SMILES
401	O=C(Nc1ccc(Nc2ccnc3[nH]c(=O)c4ccccc4c23)cc1)c1ccccc1

target: Vascular endothelial growth factor receptor 3 (Homo sapiens, UniProt P35916); test: Inhibition of Flt4 (unknown origin); settings: not given
Sequence (P35916 whole entry): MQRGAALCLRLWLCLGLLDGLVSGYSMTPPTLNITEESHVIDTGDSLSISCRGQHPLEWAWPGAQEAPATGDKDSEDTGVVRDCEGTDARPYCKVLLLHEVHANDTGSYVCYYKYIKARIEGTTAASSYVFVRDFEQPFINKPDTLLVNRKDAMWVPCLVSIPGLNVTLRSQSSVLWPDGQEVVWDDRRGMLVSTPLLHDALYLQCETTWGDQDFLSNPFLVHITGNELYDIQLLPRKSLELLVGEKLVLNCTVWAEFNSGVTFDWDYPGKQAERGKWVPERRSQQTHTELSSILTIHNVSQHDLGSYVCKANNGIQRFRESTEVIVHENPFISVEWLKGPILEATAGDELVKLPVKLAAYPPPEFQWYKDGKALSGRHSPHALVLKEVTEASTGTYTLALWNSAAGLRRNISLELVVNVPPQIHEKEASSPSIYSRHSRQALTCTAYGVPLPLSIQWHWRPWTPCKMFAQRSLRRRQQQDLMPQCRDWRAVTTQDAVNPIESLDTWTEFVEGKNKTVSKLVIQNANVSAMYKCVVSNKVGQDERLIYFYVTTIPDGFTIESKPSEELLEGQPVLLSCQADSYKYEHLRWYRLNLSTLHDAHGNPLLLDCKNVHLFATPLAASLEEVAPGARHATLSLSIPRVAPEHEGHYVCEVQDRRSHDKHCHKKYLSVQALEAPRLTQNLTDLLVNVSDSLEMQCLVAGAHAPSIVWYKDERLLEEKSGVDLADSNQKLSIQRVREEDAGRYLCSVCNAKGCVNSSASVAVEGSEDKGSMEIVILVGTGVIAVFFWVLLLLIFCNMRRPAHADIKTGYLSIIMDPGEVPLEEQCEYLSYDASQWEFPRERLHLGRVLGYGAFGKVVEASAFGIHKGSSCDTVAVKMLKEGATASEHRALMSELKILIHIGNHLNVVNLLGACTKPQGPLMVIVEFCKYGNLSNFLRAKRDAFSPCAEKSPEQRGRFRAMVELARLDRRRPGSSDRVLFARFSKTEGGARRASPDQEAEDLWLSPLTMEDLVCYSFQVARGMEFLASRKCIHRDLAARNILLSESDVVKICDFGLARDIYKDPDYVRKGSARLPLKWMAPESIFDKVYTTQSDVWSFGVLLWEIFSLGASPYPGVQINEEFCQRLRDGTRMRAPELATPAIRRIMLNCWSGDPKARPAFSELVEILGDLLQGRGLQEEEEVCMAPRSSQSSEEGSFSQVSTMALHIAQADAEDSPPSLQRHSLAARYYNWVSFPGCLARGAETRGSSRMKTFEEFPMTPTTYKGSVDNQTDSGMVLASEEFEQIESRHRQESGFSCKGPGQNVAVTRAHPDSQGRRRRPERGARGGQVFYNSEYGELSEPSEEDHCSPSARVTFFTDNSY

IC50 [nM]	SMILES
417	O=C(Nc1ccc(Nc2ccnc3[nH]c(=O)c4ccccc4c23)cc1)c1ccccc1
867	O=C(Nc1ccc(Nc2ccnc3[nH]c(=O)c4ccccc4c23)cc1)c1ccc(F)cc1C(F)(F)F

test system: MIA PaCa-2; test: Antiproliferative activity against human MIAPaCa2 cells; assay type: functional, cell-based; settings: not given

IC50 [nM]	SMILES
409	O=C(Nc1ccc(Nc2ccnc3[nH]c(=O)c4ccccc4c23)cc1)c1ccc(F)c(F)c1
209	O=C(Nc1ccc(Nc2ccnc3[nH]c(=O)c4ccccc4c23)cc1)c1cccc(F)c1F
823	O=C(Nc1ccc(Nc2ccnc3[nH]c(=O)c4ccccc4c23)cc1)c1cc(F)cc(F)c1
329	O=C(Nc1ccc(Nc2ccnc3[nH]c(=O)c4ccccc4c23)cc1)c1ccccc1
170	O=C(Nc1ccc(Nc2ccnc3[nH]c(=O)c4ccccc4c23)cc1)c1ccc(F)cc1C(F)(F)F

target: Tyrosine-protein kinase ABL2 (Homo sapiens, UniProt P42684); test: Inhibition of Arg (unknown origin); settings: not given

IC50 [nM]	SMILES
863	O=C(Nc1ccc(Nc2ccnc3[nH]c(=O)c4ccccc4c23)cc1)c1ccc(F)cc1C(F)(F)F

test system: not listed separately; test: AUC in mouse at 5 mg/kg, iv; assay type: ADME, organism-based; parameters: dose 5 mg/kg, route intravenous; settings: plasma

AUC [ng·h/mL]	SMILES
4190	O=C(Nc1ccc(Nc2ccnc3[nH]c(=O)c4ccccc4c23)cc1)c1ccc(F)cc1C(F)(F)F

target: Macrophage colony-stimulating factor 1 receptor (Homo sapiens, UniProt P07333); test: Inhibition of Fms (unknown origin); settings: not given

IC50 [nM]	SMILES
575	O=C(Nc1ccc(Nc2ccnc3[nH]c(=O)c4ccccc4c23)cc1)c1ccc(F)cc1C(F)(F)F

target: Serine/threonine-protein kinase Chk2 (Homo sapiens, UniProt O96017); test: Inhibition of CHK2 (unknown origin); settings: not given
Sequence (O96017 whole entry): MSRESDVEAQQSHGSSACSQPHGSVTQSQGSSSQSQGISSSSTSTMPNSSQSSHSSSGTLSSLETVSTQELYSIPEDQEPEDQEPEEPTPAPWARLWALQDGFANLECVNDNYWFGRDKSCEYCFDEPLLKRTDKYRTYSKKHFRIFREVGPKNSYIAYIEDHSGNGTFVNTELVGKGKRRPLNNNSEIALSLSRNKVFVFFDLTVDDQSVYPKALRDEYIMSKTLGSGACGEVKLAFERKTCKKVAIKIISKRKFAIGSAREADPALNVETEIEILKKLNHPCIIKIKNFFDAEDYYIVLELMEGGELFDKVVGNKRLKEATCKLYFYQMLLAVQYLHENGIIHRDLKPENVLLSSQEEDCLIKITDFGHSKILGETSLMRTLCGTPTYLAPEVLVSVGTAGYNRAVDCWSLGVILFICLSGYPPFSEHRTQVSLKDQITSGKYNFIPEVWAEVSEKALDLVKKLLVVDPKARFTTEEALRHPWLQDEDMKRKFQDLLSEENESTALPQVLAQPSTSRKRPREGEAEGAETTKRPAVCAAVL

IC50 [nM]	SMILES
41	O=C(Nc1ccc(Nc2ccnc3[nH]c(=O)c4ccccc4c23)cc1)c1ccccc1
161	O=C(Nc1ccc(Nc2ccnc3[nH]c(=O)c4ccccc4c23)cc1)c1ccc(F)cc1C(F)(F)F

target: Tyrosine-protein kinase Blk (Homo sapiens, UniProt P51451); test: Inhibition of Blk (unknown origin); settings: not given

IC50 [nM]	SMILES
959	O=C(Nc1ccc(Nc2ccnc3[nH]c(=O)c4ccccc4c23)cc1)c1ccc(F)cc1C(F)(F)F

target: Fibroblast growth factor receptor 1 (Homo sapiens, UniProt P11362); test: Inhibition of FGFR1 (unknown origin); settings: not given

IC50 [nM]	SMILES
175	O=C(Nc1ccc(Nc2ccnc3[nH]c(=O)c4ccccc4c23)cc1)c1ccccc1

test system: not listed separately; test: Cmax in mouse at 5 mg/kg, iv; assay type: ADME, organism-based; parameters: dose 5 mg/kg, route intravenous; settings: in vivo

Cmax [ng/mL]	SMILES
3930	O=C(Nc1ccc(Nc2ccnc3[nH]c(=O)c4ccccc4c23)cc1)c1ccc(F)cc1C(F)(F)F

test system: not listed separately; test: Cmax in mouse at 5 mg/kg, po; assay type: ADME, organism-based; parameters: dose 5 mg/kg, route oral; settings: in vivo

Cmax [ng/mL]	SMILES
321	O=C(Nc1ccc(Nc2ccnc3[nH]c(=O)c4ccccc4c23)cc1)c1ccc(F)cc1C(F)(F)F

target: T3, Aurora kinase A (Homo sapiens, UniProt O14965); test: Inhibition of aurora-A (unknown origin); settings: not given
T3 sequence (O14965 whole entry): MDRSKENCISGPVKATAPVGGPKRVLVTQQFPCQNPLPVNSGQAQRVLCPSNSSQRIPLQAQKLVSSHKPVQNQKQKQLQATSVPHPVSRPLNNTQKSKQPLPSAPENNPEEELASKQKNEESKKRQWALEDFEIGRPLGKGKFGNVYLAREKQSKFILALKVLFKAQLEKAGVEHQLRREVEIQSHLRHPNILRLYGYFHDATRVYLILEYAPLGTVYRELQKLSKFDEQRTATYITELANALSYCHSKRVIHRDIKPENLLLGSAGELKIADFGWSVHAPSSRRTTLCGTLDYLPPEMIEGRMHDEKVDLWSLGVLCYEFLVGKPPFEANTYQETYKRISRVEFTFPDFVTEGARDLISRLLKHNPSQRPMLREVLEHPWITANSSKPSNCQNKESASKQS

SMILES	IC50 [nM]
O=C(Nc1ccc(Nc2ccnc3[nH]c(=O)c4ccccc4c23)cc1)c1cccc(F)c1F	2
O=C(Nc1ccc(Nc2ccnc3[nH]c(=O)c4ccccc4c23)cc1)c1cc(F)cc(F)c1	7
O=C(Nc1ccc(Nc2ccnc3[nH]c(=O)c4ccccc4c23)cc1)c1ccccc1	4
O=C(Nc1ccc(Nc2ccnc3[nH]c(=O)c4ccccc4c23)cc1)c1ccc(F)cc1C(F)(F)F	0.3

The next lines start with the values.

IC50 [nM]	SMILES
7	O=C(Nc1ccc(Nc2ccnc3[nH]c(=O)c4ccccc4c23)cc1)c1ccc(F)c(F)c1
3010	O=c1[nH]c2nccc(Cl)c2c2ccccc12

test system: not listed separately; test: Half life in mouse at 5 mg/kg, po; assay type: ADME, organism-based; parameters: dose 5 mg/kg, route oral; settings: in vivo

half-life [h]	SMILES
2.74	O=C(Nc1ccc(Nc2ccnc3[nH]c(=O)c4ccccc4c23)cc1)c1ccc(F)cc1C(F)(F)F

test system: not listed separately; test: Clearance in mouse at 5 mg/kg, iv; assay type: ADME, organism-based; parameters: dose 5 mg/kg, route intravenous; settings: in vivo

clearance [mL/min/kg]	SMILES
19.7	O=C(Nc1ccc(Nc2ccnc3[nH]c(=O)c4ccccc4c23)cc1)c1ccc(F)cc1C(F)(F)F

test system: MIA PaCa-2; test: Induction of endoreduplication human MIAPaCa2 cells assessed as accumulation of cells with >4N DNA content after 24 hrs; assay type: functional, cell-based; settings: not given

SMILES	Activity
O=C(Nc1ccc(Nc2ccnc3[nH]c(=O)c4ccccc4c23)cc1)c1ccc(F)cc1C(F)(F)F	Active

test system: not listed separately; test: AUC in mouse at 5 mg/kg, po; assay type: ADME, organism-based; parameters: dose 5 mg/kg, route oral; settings: plasma

AUC [ng·h/mL]	SMILES
1440	O=C(Nc1ccc(Nc2ccnc3[nH]c(=O)c4ccccc4c23)cc1)c1ccc(F)cc1C(F)(F)F
